According to patent US9498460B1, “Halogenated tetracyclic compounds” (KING SAUD UNIVERSITY, priority 2016, dated 2016):
Values after ≈ are worked out from the molar mass of the structure shown.

What was measured:
[1] = test system: lung carcinoma cell line A549; experiment: MTT growth inhibition, A549; type: cell-based; details: for IC50: Homo sapiens, A549, MTT test, 96-well plate, serial dilution, spread in brackets; for sensitivity of treated cancer cells, times higher: cell line printed as A459, comparator not stated
Procedure: (§1) Growth inhibitions were measured in 96-well plates. Aliquots of 120 μL of the suspended cells (50,000 mL^−1) were given to 60 μL of a serial dilution of the inhibitor (S). After 5 days of incubations, growths were determined the MTT assay (MTT=3-(4,5-dimethylthiazol-2-yl)-2,5-diphenyltetrazolium bromide). Briefly, 20 μl MTT (5 mg/mL in PBS) were added to each well, and the plates were incubated for 2 h at 37° C., and 5% CO2-atmosphere in the cell incubator. The supernatants were then discarded and 200 μl of isopropanol/HCl were added to each well and mixed to dissolve the formazan crystals. The absorbance was then read at 550 nm using a microplate reader (Thermo Scientific, USA). The viability of the cells was calculated by dividing the absorbance average of the treated cells by the absorbance average of the control cells multiply 100%. […] The activities of the cells were plotted against the concentration of the drugs, and the IC50 values were calculated from the regression curve.
(§2) The cancer cell lines were incubated with serial dilution of each compound (from 313 pg ML^−1 to 5 mg ML^−1) in a 96-well plate for 4 days, and then tested for growth inhibition by MTT-Test.

[2] = test system: hepatocellular carcinoma HepG2 cell line; experiment: MTT growth inhibition, HepG2; type: cell-based; details: for IC50: Homo sapiens, MTT test, 96-well plate, serial dilution, spread in brackets; for sensitivity of treated cancer cells, times higher: comparator not stated
Procedure: as §1, §2

[3] = test system: Burkitts Lymphoma (BL) cell lines DG-75; details: does not involve caspases, DNA fragmentation or PARP cleavage; cited from earlier work
[4] = test system: colorectal carcinoma HTC-116 cell line; experiment: MTT growth inhibition, HTC-116 (HCT 116); type: cell-based; details: for IC50: Homo sapiens, HCT-116, MTT test, 96-well plate, serial dilution, spread in brackets; for growth inhibition of third cell line (HCT): result in words
Procedure: as §1
The cancer cell lines were incubated with serial dilution of each compound (from 313 pg ML^−1 to 5 mg ML^−1) in a 96-well plate for 4 days, and then tested for growth inhibition by MTT-Test. […] Replacing the formyl groups of the two compounds with amino groups (Sub. 6 and Sub. 7) caused remarkable decreasing of cells sensitivities, and accordingly increasing of IC50 values of the two derivatives as shown in table 2. […] Moreover, the sensitivities of the treated cancer cells to 4 and 5 were 6 times higher in case of the […] cell line A459, and even 40 times higher in case of hepatocyte carcinoma cell line HepG2.

| SMILES | melting point [°C] | IC50 [1] [mg/L] | IC50 [2] [mg/L] | in vitro antiproliferative activity against DG-75 [3] | IC50 [4] [mg/L] | growth inhibition of third cell line (HCT) [4] | sensitivity of treated cancer cells, times higher [1] [times] | sensitivity of treated cancer cells, times higher [2] [times] |
| --- | --- | --- | --- | --- | --- | --- | --- | --- |
| CNCC1CC2c3cccc(Cl)c3C1c1c(Cl)cccc12 (stereo not shown) [Compound 6, 1-(4,5-dichloro-9,10-dihydro-9,10-ethanoanthracen-11-yl)-N-methylmethanamine] | 290 | 25.5 (≈ 80.1 µM) | 12.7 (≈ 39.8 µM) |  |  |  |  |  |
| CNCCCC12CCC(c3ccccc31)c1ccccc12 [Maprotiline, 9,10-dihydro-N-methyl-9,10-ethanoanthracene-9-propanamine] |  |  |  | antiproliferative agent |  |  |  |  |
| CNCC1CC2c3c(Cl)cccc3C1c1cccc(Cl)c12 (stereo not shown) [Compound 7, 1-(1,8-dichloro-9,10-dihydro-9,10-ethanoanthracen-11-yl)-N-methylmethanamine] | 310 | 18.9 (≈ 59.4 µM) | 13.8 (≈ 43.4 µM) |  |  |  |  |  |
| O=CC1CC2c3c(Cl)cccc3C1c1cccc(Cl)c12 (stereo not shown) [Compound 5, 1,8-dichloro-9,10-dihydro-9,10-ethanoanthracene-11-carbaldehyde] |  | 3.71 (≈ 12.2 µM) | 0.65 (≈ 2.14 µM) |  | 0.7 (≈ 2.31 µM) | able to inhibit the growth | 6 | 40 |
| O=CC1CC2c3cccc(Cl)c3C1c1c(Cl)cccc12 (stereo not shown) [Compound 4, 4,5-dichloro-9,10-dihydro-9,10-ethanoanthracene-11-carbaldehyde] |  | 1.1 (≈ 3.63 µM) | 0.12 (≈ 0.396 µM) |  | 0.4 (≈ 1.32 µM) | able to inhibit the growth | 6 | 40 |
